Results as given in PubChem BioAssay AID330 (DTP/NCI, 2004).
Values joined by “and” are separate entries in the source; they are usually repeats but may differ in a detail not shown here. Equal entries are not always repeated. Inconclusive results and toxic doses are left out. Rule for the calls: active = survival T/C of 150% or more; inactive = T/C below 125% in these data.

Tested on: P388 leukemia ip, CD2F1 mice, survival T/C
Test: NCI In Vivo Anticancer Drug Screen. Data for tumor model P388 Leukemia (intraperitoneal) in CD2F1 (CDF1) mice
Settings: endpoint: median survival time, higher = longer survival
Method in brief: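 Mice carrying the transplanted tumor received test compound or vehicle. Survival was recorded in each group, and the value is the treated-group measurement divided by that of the vehicle-treated control group.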

[1] = dose: 60.0 mg/kg/injection, schedule: Q01DX005 (ip), vehicle: saline with Tween-80
[2] = dose: 120.0 mg/kg/injection, schedule: Q01DX005 (ip), vehicle: saline with Tween-80
[3] = dose: 240.0 mg/kg/injection, schedule: Q01DX005 (ip), vehicle: saline with Tween-80
[4] = dose: 50.0 mg/kg/injection, schedule: Q01DX005 (ip), vehicle: Klucel (hydroxypropylcellulose) (HPC)
[5] = dose: 100.0 mg/kg/injection, schedule: Q01DX005 (ip), vehicle: Klucel (hydroxypropylcellulose) (HPC)
[6] = dose: 25.0 mg/kg/injection, schedule: Q01DX009 (ip), vehicle: saline with Tween-80
[7] = dose: 50.0 mg/kg/injection, schedule: Q01DX009 (ip), vehicle: saline with Tween-80
[8] = dose: 100.0 mg/kg/injection, schedule: Q01DX009 (ip), vehicle: saline with Tween-80
[9] = dose: 50.0 mg/kg/injection, schedule: Q01DX009 (ip), vehicle: saline
[10] = dose: 100.0 mg/kg/injection, schedule: Q01DX009 (ip), vehicle: saline
[11] = dose: 200.0 mg/kg/injection, schedule: Q01DX009 (ip), vehicle: saline
[12] = dose: 100.0 mg/kg/injection, schedule: Q04DX003 (ip), vehicle: saline with Tween-80
[13] = dose: 200.0 mg/kg/injection, schedule: Q04DX003 (ip), vehicle: saline with Tween-80
[14] = dose: 200.0 mg/kg/injection, schedule: Q01DX005 (ip), vehicle: Klucel (hydroxypropylcellulose) (HPC)
[15] = dose: 50.0 mg/kg/injection, schedule: Q01DX005 (ip), vehicle: saline with Tween-80

Measured: T/C

O=C(CCc1c[nH]c2ccccc12)c1ccccc1O
inactive: [1] 98 % of control | [2] 100 % of control | [3] 92 % of control

C=C1CC(c2ccc(S(=O)(=O)N3CCOCC3)cc2)OC1=O (stereo not given)
inactive: dose: 25.0 mg/kg/injection, schedule: Q01DX005 (ip), vehicle: Klucel (hydroxypropylcellulose) (HPC) 104 % of control | [4] 120 % of control | [5] 113 % of control

COC(OC)C(Sc1ccccc1-n1cccc1)c1ccccc1 (stereo not given)
inactive: dose: 60.0 mg/kg/injection, schedule: Q01DX005 (ip), vehicle: saline 105 % of control | dose: 120.0 mg/kg/injection, schedule: Q01DX005 (ip), vehicle: saline 103 % of control | dose: 240.0 mg/kg/injection, schedule: Q01DX005 (ip), vehicle: saline 108 % of control

Cc1cccc(C(=O)NN)c1O
inactive: dose: 12.5 mg/kg/injection, schedule: Q01DX009 (ip), vehicle: saline with Tween-80 98 % of control | [6] 104 % of control | [7] 104 % of control | [8] 101 % of control

Cc1ccc(NC(=O)Oc2cc(C)c(Br)c(C)c2)cc1Cl
inactive: [9] 107 % of control | [10] 95 % of control | [11] 91 % of control

Cc1ccc(NC(=O)CCCC(=O)C(C#N)c2c(Cl)cccc2Cl)cc1C (stereo not given)
inactive: [1] 114 % of control | [2] 108 % of control | [3] 103 % of control

O=c1[nH]nc(-c2ccc(Br)cc2)s1
inactive: [12] 98 % of control | [13] 100 % of control | dose: 400.0 mg/kg/injection, schedule: Q04DX003 (ip), vehicle: saline with Tween-80 99 % of control

N=C(/C(=C/c1ccccc1)c1ccccc1)c1ccccc1
inactive: dose: 50.0 mg/kg/injection, schedule: Q01DX009 (ip), vehicle: Klucel (hydroxypropylcellulose) (HPC) 107 % of control | dose: 100.0 mg/kg/injection, schedule: Q01DX009 (ip), vehicle: Klucel (hydroxypropylcellulose) (HPC) 113 % of control | dose: 200.0 mg/kg/injection, schedule: Q01DX009 (ip), vehicle: Klucel (hydroxypropylcellulose) (HPC) 118 % of control

Cc1cc(O)c(C(c2ccccc2)c2c(O)cc(C)[nH]c2=O)c(=O)[nH]1
inactive: [6] 90 % of control | [7] 91 % of control | [8] 86 % of control

COc1ccc2c3c(cnc2c1)P(C)(=O)CC3 (stereo not given)
inactive: [9] 101 % of control | [10] 96 % of control | [11] 102 % of control

COc1cc(C/C(=C\c2cc(OC)c(OC)c(OC)c2)[N+](=O)[O-])ccc1OCc1ccccc1
inactive: dose: 50.0 mg/kg/injection, schedule: Q01DX001 (ip), vehicle: Klucel (hydroxypropylcellulose) (HPC) 93 % of control | dose: 100.0 mg/kg/injection, schedule: Q01DX001 (ip), vehicle: Klucel (hydroxypropylcellulose) (HPC) 94 % of control

COC(=O)c1nnn(-c2ccc(S(N)(=O)=O)cc2)c1C(=O)c1ccc(OC)cc1
inactive: [1] 100 % of control | [2] 99 % of control | [3] 94 % of control

Clc1nnc(Cl)s1
inactive: [6] 96 % of control | [7] 95 % of control | [8] 101 % of control

CN(C)c1ccc(C(Cl)[O][Sn]([CH3])([CH3])[Cl])cc1 (stereo not given)
inactive: dose: 12.5 mg/kg/injection, schedule: Q04DX002 (ip), vehicle: saline with Tween-80 106 % of control and 116 % of control | dose: 12.5 mg/kg/injection, schedule: Q04DX002 (ip), vehicle: saline 110 % of control | dose: 25.0 mg/kg/injection, schedule: Q04DX002 (ip), vehicle: saline with Tween-80 101 % of control and 106 % of control | dose: 25.0 mg/kg/injection, schedule: Q04DX002 (ip), vehicle: saline 115 % of control | dose: 50.0 mg/kg/injection, schedule: Q04DX002 (ip), vehicle: saline with Tween-80 116 % of control and 120 % of control | dose: 50.0 mg/kg/injection, schedule: Q04DX002 (ip), vehicle: saline 100 % of control | dose: 100.0 mg/kg/injection, schedule: Q04DX002 (ip), vehicle: saline 98 % of control

c1ccc2c(SC3CCC4CC5CC4C3C5)nccc2c1 (stereo not given)
inactive: [1] 91 % of control | [2] 94 % of control | [3] 91 % of control

O=c1[nH]nnc2c1ncn2C1OC(CO)C(O)C1O (stereo not given)
inactive: dose: 12.5 mg/kg/injection, schedule: Q01DX001 (ip), vehicle: saline 99 % of control | dose: 25.0 mg/kg/injection, schedule: Q01DX001 (ip), vehicle: saline 106 % of control | dose: 50.0 mg/kg/injection, schedule: Q01DX001 (ip), vehicle: saline 100 % of control | dose: 100.0 mg/kg/injection, schedule: Q01DX001 (ip), vehicle: saline 99 % of control

CC(C)(C)SC(=O)C1CC1
inactive: [12] 111 % of control | [13] 102 % of control

[N-]=[N+]=C1N=Nc2ccccc21
inactive: dose: 0.78 mg/kg/injection, schedule: Q01DX005 (ip), vehicle: Klucel (hydroxypropylcellulose) (HPC) 99 % of control | dose: 1.56 mg/kg/injection, schedule: Q01DX005 (ip), vehicle: Klucel (hydroxypropylcellulose) (HPC) 107 % of control | dose: 3.12 mg/kg/injection, schedule: Q01DX005 (ip), vehicle: Klucel (hydroxypropylcellulose) (HPC) 107 % of control

Cc1cnc(NCCCNc2ncc(C)c(-c3ccccc3O)n2)nc1-c1ccccc1O
inactive: [4] 88 % of control | [5] 86 % of control | [14] 92 % of control

CC(=O)N(C)OS(C)(=O)=O
inactive: dose: 50.0 mg/kg/injection, schedule: Q01DX001 (ip), vehicle: saline with Tween-80 108 % of control | [15] 101 % of control | dose: 100.0 mg/kg/injection, schedule: Q01DX001 (ip), vehicle: saline with Tween-80 100 % of control | dose: 100.0 mg/kg/injection, schedule: Q01DX005 (ip), vehicle: saline with Tween-80 103 % of control | dose: 200.0 mg/kg/injection, schedule: Q01DX001 (ip), vehicle: saline with Tween-80 104 % of control | dose: 200.0 mg/kg/injection, schedule: Q01DX005 (ip), vehicle: saline with Tween-80 106 % of control | dose: 400.0 mg/kg/injection, schedule: Q01DX001 (ip), vehicle: saline with Tween-80 104 % of control

COc1cc(C)c(OC)c(C/C=C(\C)CC2=C(CC(C)(C)O)C(=O)[C@]3(C)CCC[C@]3(C)C2)c1
inactive: dose: 5.0 mg/kg/injection, schedule: Q01DX005 (ip), vehicle: saline with Tween-80 105 % of control | dose: 10.0 mg/kg/injection, schedule: Q01DX005 (ip), vehicle: saline with Tween-80 94 % of control | dose: 20.0 mg/kg/injection, schedule: Q01DX005 (ip), vehicle: saline with Tween-80 94 % of control

COCCCn1c(-c2cc(OC)c(OC)c(OC)c2)nn2c(=O)c3ccccc3nc2c1=O
inactive: [9] 102 % of control | [10] 107 % of control | [11] 101 % of control

CCOC(=O)C[n+]1ccc2c([nH]c3cc(OC)ccc32)c1C
inactive: [9] 97 % of control | [10] 112 % of control | [11] 110 % of control

Cc1ccc2cccnc2c1NCCCCCNC(C)C
inactive: dose: 12.5 mg/kg/injection, schedule: Q01DX005 (ip), vehicle: saline with Tween-80 97 % of control | dose: 25.0 mg/kg/injection, schedule: Q01DX005 (ip), vehicle: saline with Tween-80 100 % of control | [15] 100 % of control and 97 % of control

CN1NC(c2ccccc2)=C(C#N)C(=O)CC1c1ccco1 (stereo not given)
inactive: [1] 102 % of control | [2] 86 % of control | [3] 97 % of control

CCCC(=O)Oc1c(OC(=O)CCC)c(OC(=O)CCC)c(OC(=O)CCC)c(OC(=O)CCC)c1OC(=O)CCC
inactive: dose: 100.0 mg/kg/injection, schedule: Q04DX002 (ip), vehicle: saline with Tween-80 95 % of control | dose: 200.0 mg/kg/injection, schedule: Q04DX002 (ip), vehicle: saline with Tween-80 99 % of control | dose: 400.0 mg/kg/injection, schedule: Q04DX002 (ip), vehicle: saline with Tween-80 90 % of control

C=CCOC1CC(C)(O)Cc2cc3c(c(O)c21)C(=O)c1c(O)cc2c(c1C3=O)OC1OC2(C)C(O)C(N(C)C)C1O (stereo not given)
inactive: dose: 1.25 mg/kg/injection, schedule: Q01DX009 (ip), vehicle: other 114 % of control | dose: 2.5 mg/kg/injection, schedule: Q01DX009 (ip), vehicle: other 120 % of control | dose: 10.0 mg/kg/injection, schedule: Q01DX009 (ip), vehicle: other 123 % of control

COC(=O)c1ncn(C)c1O
inactive: dose: 60.0 mg/kg/injection, schedule: Q01DX005 (ip), vehicle: water 103 % of control | dose: 120.0 mg/kg/injection, schedule: Q01DX005 (ip), vehicle: water 113 % of control | dose: 240.0 mg/kg/injection, schedule: Q01DX005 (ip), vehicle: water 104 % of control

CC(NC(=O)OCc1ccccc1)C(=O)NCC(=O)OCc1ccccc1 (stereo not given)
inactive: [4] 100 % of control | [5] 98 % of control | [14] 104 % of control
